{"source": "patent US20200223826A1", "about": "“Glucose-6-Phosphate Dehydrogenase (G6PD)-Modulating Agents And Methods Of Treating G6PD Deficiency” (The Board of Trustees of the Leland Stanford Junior …, priority 2017, published 2020)", "key": {"[1]": {"molecular_target": "glyceraldehyde 3-phosphate dehydrogenase (GAPDH) (Homo sapiens, UniProt P04406)", "sequence (P04406 whole entry, species assumed)": "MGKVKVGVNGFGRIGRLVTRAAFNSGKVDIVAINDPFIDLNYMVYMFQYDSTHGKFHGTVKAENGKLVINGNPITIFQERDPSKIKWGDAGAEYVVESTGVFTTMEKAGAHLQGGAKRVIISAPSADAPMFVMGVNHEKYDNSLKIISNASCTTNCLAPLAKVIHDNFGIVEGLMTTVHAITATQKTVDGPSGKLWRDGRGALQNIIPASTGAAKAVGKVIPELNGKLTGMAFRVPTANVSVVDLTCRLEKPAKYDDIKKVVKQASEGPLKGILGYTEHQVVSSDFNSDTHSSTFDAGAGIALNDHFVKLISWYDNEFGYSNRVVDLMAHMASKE", "assay": "Selectivity: dimerization or activity of other NAD/NADP+-dependent enzymes", "type": "biochemical"}, "[2]": {"molecular_target": "T1, G6PD in human erythrocytes (Homo sapiens, UniProt P11413)", "T1 construct": "host or cells: human erythrocytes", "T1 sequence (P11413 2-515 limits assumed)": "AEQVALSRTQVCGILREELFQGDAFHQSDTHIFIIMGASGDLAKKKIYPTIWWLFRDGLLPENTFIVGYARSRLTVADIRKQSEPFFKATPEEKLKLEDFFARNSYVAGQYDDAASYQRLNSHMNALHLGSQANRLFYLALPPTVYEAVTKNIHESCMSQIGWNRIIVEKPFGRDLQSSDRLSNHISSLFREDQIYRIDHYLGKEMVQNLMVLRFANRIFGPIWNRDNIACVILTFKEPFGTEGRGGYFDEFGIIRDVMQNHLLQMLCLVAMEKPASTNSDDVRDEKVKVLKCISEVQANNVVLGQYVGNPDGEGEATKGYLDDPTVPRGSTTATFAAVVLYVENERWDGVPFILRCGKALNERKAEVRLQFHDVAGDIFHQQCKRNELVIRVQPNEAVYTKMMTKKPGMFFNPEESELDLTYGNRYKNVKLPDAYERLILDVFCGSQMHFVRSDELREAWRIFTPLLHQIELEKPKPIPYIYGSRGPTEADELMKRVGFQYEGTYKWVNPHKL", "assay": "G6PD activity in erythrocytes under oxidative stressors", "type": "cell-based", "settings": "drug-induced oxidative stress", "experimental": "(§1) De-identified blood samples were obtained from the Stanford Blood Center. Erythrocytes were collected by filtering the samples through a cellulose slurry to remove platelets and leukocytes and then washed with saline. G6PD activity was measured (Beutler E. Red cell metabolism: A manual of biochemical methods (3rd edition). Grune & Stratton (1984)). […] A 5% erythrocyte suspension was pre-incubated with 1-5 μM AG1 at 4° C. overnight, which was followed by treatment with (or without) either 1 mM chloroquine (CQ) or 1 mM diamide for 3-4 hours at 37° C. (for hemolysis assay with chloroquine, the mixture was incubated under light). Then centrifugation at 1,000 rpm for 5 minutes was followed. Hemoglobin release in the supernatant was monitored by measuring absorbance at 540 nm. […] After wash, the samples were lysed with 0.1% Triton X-100 (final concentration), and the florescence was analyzed with excitation/emission at 485/525 nm. GSH measurement was determined using a Cayman glutathione assay kit (Cayman Chemicals, 703002). […] The absorbance was read at 412 nm. For storage assay, a 5% erythrocyte suspension was stored at 4° C. with and without 1 μM AG1, and hemolysis and G6PD activity were monitored every week for 28 days to examine whether AG1 improves preservation of erythrocytes over time. Protein leakage was also examined by measuring the absorbance of the supernatant of samples at 280 nm. […]"}, "[3]": {"molecular_target": "T2, Canton G6PD in SH-SY5Y cells (Homo sapiens, UniProt P11413, R459L)", "T2 construct": "expressed in transfected cells; host or cells: SH-SY5Y neuroblastoma cells", "T2 sequence (P11413 2-515 R459L)": "as the sequence (P11413 2-515 limits assumed) above, with R458L counted along it", "assay": "G6PD activity of SH-SY5Y cells expressing Canton variant", "type": "cell-based", "experimental": "Enzyme activity was measured by monitoring NADPH production, which was coupled with diaphorase converting resazurin to fluorescent resorufin (excitation at 565 nm and emission at 590 nm); fluorescent signal was thus proportional to G6PD activity. Assays were performed at 25° C. and run for 5 minutes in buffer containing 50 mM Tris (pH 7.4), 0.5 mM EDTA, 3.3 mM MgCl2, 1 U/ml diaphorase, 0.1 mM resazurin. 10 ng of recombinant enzymes or 10 μg of cell lysates was used for the assay with 10 μM NADP^+ (Sigma) as cofactor and 100 μM G6P (Sigma) as substrate. Steady-state kinetic parameters were obtained by varying concentrations of NADP^+ (0-10 μM) with a constant concentration of G6P (100 μM) and similarly for G6P (0-100 μM) with a constant concentration of NADP^+ (10 μM) with 10 ng of recombinant enzymes. Data analysis was performed using GraphPad Prism software v.6 (GraphPad Software, La Jolla, Calif. USA). Kinetic parameters were obtained by fitting the data to the Michaelis-Menten equation.\nPrior to the cellular-based assays using SH-SH5Y cells, duration of overexpression of WT G6PD and Canton variant was examined by transfecting the cells seeded in a 12-well plate. The genes encoding human WT G6PD and Canton variant were first PCR-amplified, which was then inserted into pcDNA 3.1/myc-His C (ThermoFisher Scientific) using HindIII and XhoI. […]"}, "human erythrocytes": {"test_system": "human erythrocytes", "assay": "GSH levels in erythrocytes under oxidative stressors", "type": "cell-based", "settings": "drug-induced oxidative stress", "experimental": "as §1"}, "[4]": {"molecular_target": "T3, G6PD in lysate of human fibroblasts with the Mediterranean variant (Homo sapiens, UniProt P11413, S188F)", "T3 construct": "host or cells: subject-derived fibroblast cell line", "T3 sequence (P11413 2-515 S188F limits assumed)": "as the sequence (P11413 2-515 limits assumed) above, with S187F counted along it", "assay": "G6PD activity in fibroblast lysate", "type": "cell-based", "experimental": "Lymphocytes derived from a normal subject (HG 00866) and a G6PD-deficient subject carrying Canton variant in G6PD (HG 02367) were purchased from Coriell Institute and cultured in RPMI 1640 supplemented with 15% fetal bovine serum (FBS), 100 U/ml penicillin, and 100 μg/ml streptomycin. An SH-SY5Y neuroblastoma cell line was cultured in Dulbecco's Modification of Eagle's Medium/Ham's F-12 50/50 Mix supplemented with 10% FBS, 100 U/ml penicillin, and 100 μg/ml streptomycin. A G6PD-deficient subject-derived fibroblast cell line carrying Mediterranean variant and normal fibroblast cell line as control were purchased from Coriell Institute (GM 01152) and ThermoFisher Scientific (C0135C), respectively, and cultured in minimum essential medium supplemented with 15% FBS, 100 U/ml penicillin, and 100 μg/ml streptomycin. All the cell lines were maintained at 37° C. in a humidified incubator with an atmosphere of 5% of CO2 and 95% air.\nEnzyme activity was measured by monitoring NADPH production, which was coupled with diaphorase converting resazurin to fluorescent resorufin (excitation at 565 nm and emission at 590 nm); fluorescent signal was thus proportional to G6PD activity. Assays were performed at 25° C. and run for 5 minutes in buffer containing 50 mM Tris (pH 7.4), 0.5 mM EDTA, 3.3 mM MgCl2, 1 U/ml diaphorase, 0.1 mM resazurin. […]"}, "[5]": {"test_system": "SH-SY5Y cells expressing the Canton variant", "assay": "Viability of SH-SY5Y cells expressing Canton variant", "type": "cell-based, human", "experimental": "Prior to the cellular-based assays using SH-SH5Y cells, duration of overexpression of WT G6PD and Canton variant was examined by transfecting the cells seeded in a 12-well plate. The genes encoding human WT G6PD and Canton variant were first PCR-amplified, which was then inserted into pcDNA 3.1/myc-His C (ThermoFisher Scientific) using HindIII and XhoI. 0.5 μg of cDNA and 1.5 μg of lipofectamine (Invitrogen) were diluted in 50 μL of Opti-MEM medium respectively and incubated for 5 minutes. The diluted DNA was combined with diluted lipofectamine, which was followed by incubation for 20 minutes prior to the addition to cells.\nCell viability was measured using a Cell-Counting Kit-8 (CCK-8, Dojindo), utilizing WST-8 [2-(2-methoxy-4-nitrophenyl)-3-(4-nitrophenyl)-5-(2,4-disulfophenyl)-2H-tetrazolium monosodium salt, according to the manufacturer's instructions. Cells were subjected to serum starvation for 48 hours before measurement. Cells in 100 μL of medium per well were treated with 10 μL of CCK-8 solution and incubated for 2 hours at 37° C. The absorbance was read at 450 nm. Viability of lymphocytes was measured by staining with a 0.4% solution of trypan blue in buffered isotonic salt solution (pH 7.2). The viability was calculated as the number of viable cells (non-stained by the dye) divided by the total number of cells within the grids on the hemacytometer. […]"}, "[6]": {"test_system": "band 3 protein in human erythrocytes", "assay": "Band 3 protein clustering in erythrocytes", "type": "cell-based", "settings": "chloroquine or diamide treatment"}}}
{"compound": "SCCNCCc1c[nH]c2ccccc12", "note": "[AG1, 2-[2-(1H-indol-3-yl)ethylamino]ethanethiol]", "values": [{"measurement": "effect on dimerization or activity", "setting": "[1]", "result": "no effect"}, {"measurement": "G6PD activity", "setting": "[2]", "result": "increased"}, {"measurement": "G6PD activity", "setting": "[3]", "result": "mild increase"}, {"measurement": "GSH levels", "setting": "human erythrocytes", "result": "increased"}, {"measurement": "increase of G6PD activity in lysate", "setting": "[4]", "result": 50, "unit": "%"}, {"measurement": "viability", "setting": "[5]", "result": "mild increase"}, {"measurement": "band 3 protein aggregation", "setting": "[6]", "result": "alleviated"}]}
